ChEMBL document CHEMBL4014275, “Discovery of benzofuran-3(2H)-one derivatives as novel DRAK2 inhibitors that protect islet β-cells from apoptosis” (Eur J Med Chem, 2017)
pIC50, pKd: −log10 of the molar value.

What was measured:
[1] = target: T1, Serine/threonine-protein kinase 17B (Homo sapiens, UniProt O94768); experiment: Inhibition of DRAK2 (unknown origin)
T1 sequence (O94768 whole entry): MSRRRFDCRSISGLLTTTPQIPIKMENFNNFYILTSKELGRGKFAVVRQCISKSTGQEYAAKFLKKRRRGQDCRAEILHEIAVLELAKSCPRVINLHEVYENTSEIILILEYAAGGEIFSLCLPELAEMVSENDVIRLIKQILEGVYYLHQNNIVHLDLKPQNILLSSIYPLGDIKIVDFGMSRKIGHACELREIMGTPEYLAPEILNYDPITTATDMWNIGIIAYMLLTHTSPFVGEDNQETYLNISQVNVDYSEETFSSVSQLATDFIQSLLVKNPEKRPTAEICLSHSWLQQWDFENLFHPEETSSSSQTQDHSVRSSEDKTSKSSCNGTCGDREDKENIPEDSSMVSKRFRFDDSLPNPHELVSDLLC

[2] = target: T2, Serine/threonine-protein kinase 17A (Homo sapiens, UniProt Q9UEE5); experiment: Binding affinity to DRAK1 (unknown origin)
T2 sequence (Q9UEE5 whole entry): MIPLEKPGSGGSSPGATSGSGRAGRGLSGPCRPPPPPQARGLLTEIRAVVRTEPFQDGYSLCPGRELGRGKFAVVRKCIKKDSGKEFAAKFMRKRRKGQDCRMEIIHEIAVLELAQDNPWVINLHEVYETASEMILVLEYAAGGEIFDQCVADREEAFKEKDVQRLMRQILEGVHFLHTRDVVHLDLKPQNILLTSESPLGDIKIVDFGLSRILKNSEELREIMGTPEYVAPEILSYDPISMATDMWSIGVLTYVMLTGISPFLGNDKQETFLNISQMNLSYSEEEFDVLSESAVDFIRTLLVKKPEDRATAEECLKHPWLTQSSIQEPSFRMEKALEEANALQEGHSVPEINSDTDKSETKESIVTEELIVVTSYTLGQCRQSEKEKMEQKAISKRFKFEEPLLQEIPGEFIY

[3] = target: Death-associated protein kinase 1 (Homo sapiens, UniProt P53355); experiment: Binding affinity to DAPK1 (unknown origin)
[4] = target: T1, Serine/threonine-protein kinase 17B; experiment: Inhibition of recombinant GST-tagged DRAK2 (unknown origin) autophosphorylation after 2 hrs by ADP-glo assay
[5] = target: T2, Serine/threonine-protein kinase 17A; experiment: Inhibition of human DRAK1
[6] = target: Death-associated protein kinase 2 (Homo sapiens, UniProt Q9UIK4); experiment: Inhibition of human DAPK2
[7] = target: Death-associated protein kinase 3 (Homo sapiens, UniProt O43293); experiment: Inhibition of human DAPK3
[8] = target: Tyrosine-protein kinase Blk (Homo sapiens, UniProt P51451); experiment: Inhibition of human BLK
Aurora kinase A = target: T3, Aurora kinase A (Homo sapiens, UniProt O14965); experiment: Inhibition of human AURORA-A
T3 sequence (O14965 whole entry): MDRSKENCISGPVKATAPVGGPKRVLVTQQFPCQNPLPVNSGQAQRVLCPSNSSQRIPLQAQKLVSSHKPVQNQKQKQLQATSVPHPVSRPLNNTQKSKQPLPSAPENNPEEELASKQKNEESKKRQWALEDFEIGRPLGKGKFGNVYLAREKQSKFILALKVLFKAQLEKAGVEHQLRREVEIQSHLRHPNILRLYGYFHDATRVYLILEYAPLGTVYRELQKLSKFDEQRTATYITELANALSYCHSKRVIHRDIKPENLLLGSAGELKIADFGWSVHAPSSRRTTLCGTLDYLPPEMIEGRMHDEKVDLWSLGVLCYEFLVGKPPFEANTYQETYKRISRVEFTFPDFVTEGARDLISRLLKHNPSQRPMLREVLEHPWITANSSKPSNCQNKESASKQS

[9] = target: Tyrosine-protein kinase BTK (Homo sapiens, UniProt Q06187); experiment: Inhibition of human BTK
[10] = target: T4, Inhibitor of nuclear factor kappa-B kinase subunit beta (Homo sapiens, UniProt O14920); experiment: Inhibition of human IKKB
T4 sequence (O14920 whole entry): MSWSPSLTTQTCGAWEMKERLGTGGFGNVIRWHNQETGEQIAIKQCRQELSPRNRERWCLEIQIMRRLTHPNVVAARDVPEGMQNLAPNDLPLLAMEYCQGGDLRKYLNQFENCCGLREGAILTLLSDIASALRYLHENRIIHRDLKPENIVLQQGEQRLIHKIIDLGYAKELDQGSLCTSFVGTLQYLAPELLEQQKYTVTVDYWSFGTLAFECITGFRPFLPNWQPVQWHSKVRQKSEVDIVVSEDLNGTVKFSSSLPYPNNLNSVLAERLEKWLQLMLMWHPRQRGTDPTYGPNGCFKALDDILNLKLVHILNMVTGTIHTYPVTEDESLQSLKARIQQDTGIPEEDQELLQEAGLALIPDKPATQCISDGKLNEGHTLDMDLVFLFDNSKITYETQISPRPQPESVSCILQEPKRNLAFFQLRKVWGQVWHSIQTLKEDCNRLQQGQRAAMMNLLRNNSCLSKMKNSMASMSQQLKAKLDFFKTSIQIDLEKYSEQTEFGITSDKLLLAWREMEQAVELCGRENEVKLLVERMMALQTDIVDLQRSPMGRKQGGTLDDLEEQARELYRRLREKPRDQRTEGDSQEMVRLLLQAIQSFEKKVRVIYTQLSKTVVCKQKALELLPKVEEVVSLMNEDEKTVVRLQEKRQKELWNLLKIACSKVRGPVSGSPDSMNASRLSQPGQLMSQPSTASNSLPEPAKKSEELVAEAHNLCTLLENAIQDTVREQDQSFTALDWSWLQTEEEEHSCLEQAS

[11] = target: Glycogen synthase kinase-3 beta (Homo sapiens, UniProt P49841); experiment: Inhibition of human GSK3beta
Sequence of Glycogen synthase kinase-3 beta (P49841 whole entry): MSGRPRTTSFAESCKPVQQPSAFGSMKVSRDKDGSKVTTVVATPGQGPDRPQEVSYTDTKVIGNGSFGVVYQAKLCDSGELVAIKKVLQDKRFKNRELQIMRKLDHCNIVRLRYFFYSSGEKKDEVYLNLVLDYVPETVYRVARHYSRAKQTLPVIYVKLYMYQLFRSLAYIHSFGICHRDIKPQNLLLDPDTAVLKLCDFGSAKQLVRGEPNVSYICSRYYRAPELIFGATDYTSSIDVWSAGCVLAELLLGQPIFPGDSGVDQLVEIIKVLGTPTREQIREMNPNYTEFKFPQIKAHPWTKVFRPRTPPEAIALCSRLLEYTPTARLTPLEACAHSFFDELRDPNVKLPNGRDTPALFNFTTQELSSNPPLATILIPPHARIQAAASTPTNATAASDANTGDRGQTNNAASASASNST

Sequence of Death-associated protein kinase 2 (Q9UIK4 whole entry): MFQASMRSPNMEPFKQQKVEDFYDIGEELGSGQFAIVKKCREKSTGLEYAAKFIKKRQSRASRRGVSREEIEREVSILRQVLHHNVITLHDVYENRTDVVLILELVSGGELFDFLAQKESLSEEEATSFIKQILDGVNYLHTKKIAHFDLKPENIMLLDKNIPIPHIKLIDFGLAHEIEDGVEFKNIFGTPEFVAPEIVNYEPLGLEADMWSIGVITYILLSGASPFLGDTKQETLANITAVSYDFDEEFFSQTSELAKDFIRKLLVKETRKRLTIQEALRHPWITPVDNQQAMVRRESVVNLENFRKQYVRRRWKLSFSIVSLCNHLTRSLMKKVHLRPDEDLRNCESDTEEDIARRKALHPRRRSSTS
Sequence of Tyrosine-protein kinase BTK (Q06187 whole entry): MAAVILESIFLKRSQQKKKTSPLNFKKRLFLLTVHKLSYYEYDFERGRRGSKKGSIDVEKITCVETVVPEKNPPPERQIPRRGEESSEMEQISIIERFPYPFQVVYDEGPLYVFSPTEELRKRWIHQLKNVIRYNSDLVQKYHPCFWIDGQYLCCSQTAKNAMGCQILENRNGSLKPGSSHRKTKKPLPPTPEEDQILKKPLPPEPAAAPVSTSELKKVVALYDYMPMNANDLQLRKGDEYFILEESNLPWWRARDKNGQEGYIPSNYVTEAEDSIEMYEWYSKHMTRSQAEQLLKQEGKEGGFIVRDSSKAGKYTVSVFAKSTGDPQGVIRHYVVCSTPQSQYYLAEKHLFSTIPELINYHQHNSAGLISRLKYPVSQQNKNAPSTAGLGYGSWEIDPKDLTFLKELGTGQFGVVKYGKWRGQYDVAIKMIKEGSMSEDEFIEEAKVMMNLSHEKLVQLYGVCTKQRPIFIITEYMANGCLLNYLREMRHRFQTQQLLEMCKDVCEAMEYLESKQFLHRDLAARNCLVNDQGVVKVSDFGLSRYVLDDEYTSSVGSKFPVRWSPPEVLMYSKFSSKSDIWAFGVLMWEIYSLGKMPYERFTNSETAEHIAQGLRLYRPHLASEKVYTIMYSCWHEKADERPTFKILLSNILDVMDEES
Sequence of Death-associated protein kinase 3 (O43293 whole entry): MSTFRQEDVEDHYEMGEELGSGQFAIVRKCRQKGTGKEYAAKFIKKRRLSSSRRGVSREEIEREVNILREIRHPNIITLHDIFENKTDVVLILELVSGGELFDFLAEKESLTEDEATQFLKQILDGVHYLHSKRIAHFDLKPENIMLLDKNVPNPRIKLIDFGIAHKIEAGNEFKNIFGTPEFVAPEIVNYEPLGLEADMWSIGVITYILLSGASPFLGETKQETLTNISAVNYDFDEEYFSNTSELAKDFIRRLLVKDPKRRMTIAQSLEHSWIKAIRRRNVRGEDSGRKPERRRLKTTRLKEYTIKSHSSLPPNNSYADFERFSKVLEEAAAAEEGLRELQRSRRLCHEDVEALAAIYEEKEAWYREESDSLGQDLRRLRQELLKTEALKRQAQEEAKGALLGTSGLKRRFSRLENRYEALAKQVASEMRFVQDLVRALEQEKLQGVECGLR
Sequence of Tyrosine-protein kinase Blk (P51451 whole entry): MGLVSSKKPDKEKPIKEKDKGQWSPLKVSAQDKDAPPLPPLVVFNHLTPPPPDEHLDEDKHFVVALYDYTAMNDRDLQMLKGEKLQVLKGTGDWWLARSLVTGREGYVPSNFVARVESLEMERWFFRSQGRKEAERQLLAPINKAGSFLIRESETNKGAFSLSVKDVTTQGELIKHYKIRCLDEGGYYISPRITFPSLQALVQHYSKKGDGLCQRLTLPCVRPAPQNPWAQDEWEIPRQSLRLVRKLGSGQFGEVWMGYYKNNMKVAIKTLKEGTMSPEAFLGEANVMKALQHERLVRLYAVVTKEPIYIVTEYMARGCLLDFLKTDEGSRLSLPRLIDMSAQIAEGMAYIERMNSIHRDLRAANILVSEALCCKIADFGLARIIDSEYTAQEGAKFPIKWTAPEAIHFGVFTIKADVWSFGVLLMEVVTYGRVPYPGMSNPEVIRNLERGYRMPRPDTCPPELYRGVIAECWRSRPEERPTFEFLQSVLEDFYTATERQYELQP
Sequence of Death-associated protein kinase 1 (P53355 whole entry): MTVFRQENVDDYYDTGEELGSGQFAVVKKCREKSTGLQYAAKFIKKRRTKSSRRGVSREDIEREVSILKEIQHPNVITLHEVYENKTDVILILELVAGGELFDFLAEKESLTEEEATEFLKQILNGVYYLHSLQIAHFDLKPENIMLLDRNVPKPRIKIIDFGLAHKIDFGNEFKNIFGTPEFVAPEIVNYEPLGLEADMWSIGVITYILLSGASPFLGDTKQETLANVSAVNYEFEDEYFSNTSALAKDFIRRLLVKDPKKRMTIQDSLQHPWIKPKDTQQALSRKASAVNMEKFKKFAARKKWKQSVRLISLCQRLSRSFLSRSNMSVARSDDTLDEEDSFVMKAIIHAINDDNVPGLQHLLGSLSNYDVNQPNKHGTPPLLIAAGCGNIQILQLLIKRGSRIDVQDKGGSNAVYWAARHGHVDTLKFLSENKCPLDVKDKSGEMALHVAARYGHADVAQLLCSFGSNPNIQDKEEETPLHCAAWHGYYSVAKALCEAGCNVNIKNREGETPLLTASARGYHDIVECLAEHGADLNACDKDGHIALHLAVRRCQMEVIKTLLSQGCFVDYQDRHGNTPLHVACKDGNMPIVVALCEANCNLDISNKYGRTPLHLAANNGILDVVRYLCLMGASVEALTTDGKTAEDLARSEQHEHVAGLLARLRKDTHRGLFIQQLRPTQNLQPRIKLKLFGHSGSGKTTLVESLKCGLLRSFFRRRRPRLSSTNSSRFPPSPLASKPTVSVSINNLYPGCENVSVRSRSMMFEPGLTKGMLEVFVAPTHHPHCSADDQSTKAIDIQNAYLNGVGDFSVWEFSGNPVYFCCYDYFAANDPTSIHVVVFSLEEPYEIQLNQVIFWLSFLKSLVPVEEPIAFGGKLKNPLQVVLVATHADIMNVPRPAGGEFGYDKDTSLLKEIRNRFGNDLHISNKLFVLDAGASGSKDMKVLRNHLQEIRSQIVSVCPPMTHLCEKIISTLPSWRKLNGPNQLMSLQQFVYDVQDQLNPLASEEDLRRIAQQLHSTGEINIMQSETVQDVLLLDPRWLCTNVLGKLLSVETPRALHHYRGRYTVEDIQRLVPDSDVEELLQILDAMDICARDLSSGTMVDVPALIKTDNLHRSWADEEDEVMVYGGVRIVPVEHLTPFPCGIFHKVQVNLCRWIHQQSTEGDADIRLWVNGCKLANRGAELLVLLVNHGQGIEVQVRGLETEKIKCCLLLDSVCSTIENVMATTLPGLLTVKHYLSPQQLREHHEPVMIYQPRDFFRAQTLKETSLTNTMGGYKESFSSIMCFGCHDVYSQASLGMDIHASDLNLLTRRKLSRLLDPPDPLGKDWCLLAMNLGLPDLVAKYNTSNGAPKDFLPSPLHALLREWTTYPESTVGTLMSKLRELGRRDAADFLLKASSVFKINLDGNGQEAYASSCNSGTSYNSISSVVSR

SMILES	pIC50 [1]	pKd [2]	pKd [3]	pIC50 [4]	pIC50 [5]	pIC50 [6]	pIC50 [7]	pIC50 [8]	pIC50 (Aurora kinase A)	pIC50 [9]	pIC50 [10]	pIC50 [11]
Nc1c(-c2n[nH]c(=S)o2)sc2ncc(-c3ccsc3)cc12	7.54	7.00	7.27									
CCOc1cc(/C=C2\Oc3ccc(OC)cc3C2=O)ccc1O				6.48	5.85	4.64	4.72	5.28	5.00	5.30	5.21	5.30
